Test results published in patent US4226883A, “Carbamate derivatives and method for manufacture thereof” (priority 1974, dated 1980).
Where two headings read alike, the source gives them in different places.

Assays:
[1] = test system: resistant green rice leafhoppers (R); details: ratio of the resistant strain to the susceptible strain (LD50); 1440 min
Protocol: (1) A 20-mg portion of a given test compound was weighed out and dissolved in 10 ml of acetone. The resultant solution was diluted at proper times with acetone.
(2) With a micro-syringe, the acetone solution of the test compound was topically applied to the thoracic region of female green rice leafhoppers at a fixed dose of 0.2 μl per head.
(3) The female green rice leafhoppers thus treated were placed in a plastic cup prepared in advance (measuring 7 cm in diameter and 3.5 cm in depth and containing rice seeds) and kept at a constant temperature of 26±1° C. After 24 hours' standing, the dead insects were counted.
In the case of a mixed insecticide, the LD50 was shown as a total dosage.

[2] = test system: cholinesterase (ChE), resistant strain; type: biochemical, green rice leafhopper, Nephotettix cincticeps; details: for Inhibition of Cholinesterase R/S (resistant ratio): ratio of the resistant strain to the susceptible strain (I50), 30 min; for IC50: resistant strain, 50% inhibition concentration, 30° C. 30 min with inhibitor, read-out: Inhibition of Cholinesterase I50 (M) R
Protocol: After centrifuged (30,000 g, 10 min.), the supernatant was used as the source of ChE.
(§1) (2) Inhibition: 1.0 ml of enzyme solution was incubated with 0.1 ml of inhibitor which diluted with acetone at 30° C. for 30 min. ((2) solution).
(3) Determination of ChE activity: 1.0 ml of acetylthiochline (3.5/2×10^-2 M), 1.0 ml of DTNB (5,5'-dithiobis-2-nitrobenzoic acid, 2.5×10^-4 M) and 4.0 ml of phosphate buffer (1/15 M, pH 7.4) were added to the (2) solution and incubated at 30° C. for 10 min.

[3] = molecular target: cholinesterase (ChE), susceptible strain; experiment: Inhibition of cholinesterase (acetylthiocholine method), susceptible strain enzyme; type: biochemical, green rice leafhopper, Nephotettix cincticeps; details: 50% inhibition concentration, 30° C. 30 min with inhibitor, read-out: Inhibition of Cholinesterase I50 (M) S
Protocol: The activity of ChE was performed by the acethyethiocholine method [Ellman (1961), Biochemical Pharmacology 7: 88-95].
[…]. After centrifuged (30,000 g, 10 min.), the supernatant was used as the source of ChE.
as §1
(3) Determination of ChE activity: 1.0 ml of acetylthiochline (3.5/2×10^-2 M), 1.0 ml of DTNB (5,5'-dithiobis-2-nitrobenzoic acid, 2.5×10^-4 M) and 4.0 ml of phosphate buffer (1/15 M, pH 7.4) were added to the (2) solution and incubated at 30° C. for 10 min. After incubation, […] of eserine (2×10^-3 M) was added in order to stop the enzyme reaction and the optical density of the yellow solution was measured at 412 mμ on the spectrophotometer.

[4] = test system: green rice leafhoppers of the strain RN; experiment: Test Example 4: dust test with 35 mesh metal gauze; type: in vivo, Nephotettix cincticeps
Protocol: (§2) The test for insecticidal activity was performed by the following procedure. […] The dust of a test compound (pulverized by means of a shaking pulverizer made by Taira Kosakusho, Ltd.) was applied onto the tube contents at a prescribed rate by spraying from outside the metal gauze by means of a bell-jar duster. The dust of the test compound was prepared uniformly mixing 2 parts of the dust of the individual compound or 1 part each of the dusts of the mixture components (total 2 parts) and 98 parts of a carrier obtained by mixing talc and clay in equal volumes.

[5] = test system: green rice leafhoppers of the strain RN; experiment: Test Example 3: dust spray test (20 mesh metal gauze cylinder); type: in vivo, Nephotettix cincticeps; details: for Effect of individual compound (RN), death ratio (%) (Table 9): dust, compound alone, RN strain; for death ratio (%), mixture with Compound No. 1 / death ratio (%), mixture with Compound No. 6* / death ratio (%), mixture with Compound No. 24* / death ratio (%), mixture with Compound No. 35* / death ratio (%), mixture with Compound No. 40* / death ratio (%), mixture with Compound No. 49* / death ratio (%), mixture with Compound No. 81* / death ratio (%), mixture with Compound No. 118* / death ratio (%), mixture with Carbofuran / death ratio (%), mixture with Methomyl: Table 9, RN; for death ratio (%), mixture with Compound No. 1: dust mixed with 1; for death ratio (%), mixture with Compound No. 6*: dust mixed with 6*; for death ratio (%), mixture with Compound No. 24*: dust mixed with 24*; for death ratio (%), mixture with Compound No. 35*: dust mixed with 35*; for death ratio (%), mixture with Compound No. 40*: dust mixed with 40*; for death ratio (%), mixture with Compound No. 49*: dust mixed with 49*; for death ratio (%), mixture with Compound No. 81*: dust mixed with 81*; for death ratio (%), mixture with Compound No. 118*: dust mixed with 118*; for death ratio (%), mixture with Carbofuran: dust mixed with Carbofuran; for death ratio (%), mixture with Methomyl: dust mixed with Methomyl
Protocol: The insecticides in the form of dust were tested for insecticidal activity.
as §2

| SMILES | Insecticidal Activity R/S (resistant ratio) [1] | Inhibition of Cholinesterase R/S (resistant ratio) [2] | IC50 [2] | IC50 [3] | further results |
| --- | --- | --- | --- | --- | --- |
| CCCCNC(=O)Oc1ccccc1C(C)CC (stereo not drawn) [Compound 9] | < 1.0 | < 0.1 | 0.00014 M | > 0.001 M | – |
| CNC(=O)Oc1cccc2ccccc12 [Compound 49, 1-naphthyl-N-methylcarbamate] | – | – | – | – | mortality at 100 mg ([4]; 1 h, read-out: Death ratio (%) 1 hr., Dusting amount 100 mg): 0%; mortality at 250 mg ([4]; 1 h, read-out: Death ratio (%) 1 hr., Dusting amount 250 mg): 0%; mortality at 500 mg ([4]; 1 h, read-out: Death ratio (%) 1 hr., Dusting amount 500 mg): 0%; mortality at 100 mg ([4]; 2 h, read-out: Death ratio (%) 2 hrs., Dusting amount 100 mg): 0%; mortality at 250 mg ([4]; 2 h, read-out: Death ratio (%) 2 hrs., Dusting amount 250 mg): 0%; mortality at 500 mg ([4]; 2 h, read-out: Death ratio (%) 2 hrs., Dusting amount 500 mg): 0%; mortality at 100 mg ([4]; 4 h, read-out: Death ratio (%) 4 hrs., Dusting amount 100 mg): 0%; mortality at 250 mg ([4]; 4 h, read-out: Death ratio (%) 4 hrs., Dusting amount 250 mg): 0%; mortality at 500 mg ([4]; 4 h, read-out: Death ratio (%) 4 hrs., Dusting amount 500 mg): 0%; mortality at 100 mg ([4]; 16 h, read-out: Death ratio (%) 16 hrs., Dusting amount 100 mg): 0%; mortality at 250 mg ([4]; 16 h, read-out: Death ratio (%) 16 hrs., Dusting amount 250 mg): 0%; mortality at 500 mg ([4]; 16 h, read-out: Death ratio (%) 16 hrs., Dusting amount 500 mg): 0%; mortality at 100 mg ([4]; 24 h, read-out: Death ratio (%) 24 hrs., Dusting amount 100 mg): 0%; mortality at 250 mg ([4]; 24 h, read-out: Death ratio (%) 24 hrs., Dusting amount 250 mg): 0%; mortality at 500 mg ([4]; 24 h, read-out: Death ratio (%) 24 hrs., Dusting amount 500 mg): 0%; Effect of individual compound (RN), death ratio (%) (Table 9) [5]: 0% |
| C=CCNC(=O)Oc1cccc(C(C)(C)C)c1 [Compound 34] | 1.1 | 0.3 | 8.9e-06 M | 2.6e-05 M | – |
| CCNC(=O)Oc1ccccc1C(C)C [Compound 2, 2-isopropylpheny-N-ethylcarbamate] | 2.1 | 1.6 | 5.2e-05 M | 3.2e-05 M | – |
| CCNC(=O)Oc1cccc(C(C)CC)c1 (stereo not drawn) [Compound 16] | 3.7 | 0.9 | 5.6e-06 M | 6.5e-06 M | – |
| CCNC(=O)Oc1cccc(C(C)C)c1 [Compound 12] | 3.7 | 0.5 | 1.7e-05 M | 3.7e-05 M | – |
| CCCC(C)c1cccc(OC(=O)NCC)c1 (stereo not drawn) [Compound 20] | 1.5 | 1.2 | 4.1e-06 M | 3.4e-06 M | – |
| CCc1cccc(OC(=O)NC)c1 [Compound 29, reference compound] | 14.9 | 41.4 | 0.00012 M | 2.9e-06 M | – |
| CCOc1cccc(OC(=O)NC)c1 [Compound 92, reference compound] | – | 17.6 | 0.0003 M | 1.7e-05 M | death ratio (%), mixture with Compound No. 1 [5]: 0%; death ratio (%), mixture with Compound No. 6* [5]: 0%; death ratio (%), mixture with Compound No. 24* [5]: 0%; death ratio (%), mixture with Compound No. 35* [5]: 10.0%; death ratio (%), mixture with Compound No. 40* [5]: 5.0%; death ratio (%), mixture with Compound No. 49* [5]: 0%; death ratio (%), mixture with Compound No. 81* [5]: 0%; death ratio (%), mixture with Compound No. 118* [5]: 25.0%; death ratio (%), mixture with Carbofuran [5]: 20.0%; death ratio (%), mixture with Methomyl [5]: 40.0%; Effect of individual compound (RN), death ratio (%) (Table 9) [5]: 0% |
| CCCCNC(=O)Oc1cccc(C(C)CC)c1 (stereo not drawn) [Compound 18] | 0.9 | 0.09 | 4.3e-06 M | 5e-05 M | – |
| CCNC(=O)Oc1cccc(CC)c1 [Compound 30] | 1.7 | 0.8 | 0.00016 M | 0.0002 M | – |
| CCCCNC(=O)Oc1cccc(C(C)CCC)c1 (stereo not drawn) [Compound 22] | 0.9 | 0.1 | 6.3e-06 M | 5.1e-05 M | – |
| CNC(=O)Oc1ccccc1OC [Compound 76, reference compound] | – | 32.3 | 0.00055 M | 1.7e-05 M | death ratio (%), mixture with Compound No. 1 [5]: 15.0%; death ratio (%), mixture with Compound No. 6* [5]: 0%; death ratio (%), mixture with Compound No. 24* [5]: 20.0%; death ratio (%), mixture with Compound No. 35* [5]: 10.0%; death ratio (%), mixture with Compound No. 40* [5]: 0%; death ratio (%), mixture with Compound No. 49* [5]: 0%; death ratio (%), mixture with Compound No. 81* [5]: 35.0%; death ratio (%), mixture with Compound No. 118* [5]: 45.0%; death ratio (%), mixture with Carbofuran [5]: 60.0%; death ratio (%), mixture with Methomyl [5]: 55.0%; Effect of individual compound (RN), death ratio (%) (Table 9) [5]: 0% |
| CCNC(=O)Oc1cc(C)cc(C)c1 [Compound 41, 3.5-dimethylphenyl-N-ethylcarbamate] | 2.0 | 0.7 | 7.9e-05 M | 0.00011 M | mortality at 100 mg/cylinder ([5]; 2% dust, 100 mg, 24 hr, read-out: Mortality (%) after 24 hr., 100 mg Spray (Table 7)): 50%; mortality at 250 mg/cylinder ([5]; 2% dust, 250 mg, 24 hr, read-out: Mortality (%) after 24 hr., 250 mg Spray (Table 7)): 70% |
